Laboratory results published in patent EP2284541A1, “Fluorescence-based imaging and analysis of cells and cellular components using lipophilic dyes with improved specificity, spectral property and photostability” (Max-Planck-Gesellschaft zur Förderung der Wissenschaften …, priority 2009, dated 2011).
Several values for one entry are separate records, joined by “and”; a condition that tells them apart may be missing. Equal entries are not always repeated. Where two headings read alike, the source gives them in different places.

Columns and labels:
[1] = Comparative lipophilicity: log P by direct solvent partitioning, measured in the fluorometer; assay type: physicochemical; conditions: for log P: average, dye 0.1 µg/ml; for Δlog P: LD540 versus Bodipy 493/503
Procedure: Dyes were dissolved in octanol-saturated water or oil-saturated methanol at a concentration of 0.1 μg/ml, measured in the fluorometer and shaken with an equal volume of water-saturated octanol or methanol-saturated oil for 20 min. Phases were separated by centrifugation. For octanol/water coefficients, the concentration of dye in the water phase was measured and used for calculations of log P. For the oil/methanol system, 10 μl samples of both phases were taken, diluted into 990 μl of isopropanol and measured in the fluorometer. The ratio was used for calculation of log p. Values obtained in the octanol/water system indicated higher lipophilicity of LD540. Since log P values larger 3 obtained by direct solvent partitioning are prone to errors, we also measured in the immiscible pair sunflower oil/methanol, where log p values for lipophilic substances are much smaller and less error prone. […] All values are average +/- […] values were determined by Students t-test.

[2] = Spectral characteristics (excitation and emission maxima) in various solvents and in stained cells, spectrofluorometer; assay type: physicochemical
Procedure: Spectra were measured on a Jobin Yvon Fluoromax3 spectrofluorometer at 3 x 10^-7 M. Differentiated 3T3-L1 cells were stained with 0.2 µg/ml LD540 in DMEM + 10% FCS for 30 min, followed by three washes. Cells were trypsinized, suspended at 100.000 cells/ml in PBS and measured in a fluorescence cuvette.
^#Note that the excitation maximum fits to the one reported in U.S. Patent No. 5,446,157, while the emission maximum in said reference was indicated to be 560 nm.

[3] = Photobleaching of dyes in sunflower oil under constant illumination in a photometer cuvette; assay type: physicochemical; conditions: 0.1 µg/ml in sunflower oil; constant irradiation at absorption maximum
Procedure: In a first experiment, the different dyes to be compared (LD540, Nile Red and Bodipy 493/503) were dissolved at 0.1 µg/ml in sunflower oil (which represents the cellular environment of the dyes) and constantly irradiated in a photometer cuvette at their respective absorption maximum. Excitation energy was equal for all three dyes. Every 15 seconds, fluorescence emission was recorded. […] The slope of the curves are directly proportional to the respective rate of photobleaching. Under these conditions, LD540 bleaches 3-times slower than Nile Red and 15-times slower than Bodipy 493/503.

[4] = reported in U.S. Patent No. 5,446,157; cited from earlier work
[5] = Spectral characteristics (excitation and emission maxima) in various solvents and in stained cells, spectrofluorometer; assay type: physicochemical; conditions: Ethanol, 2 x 10^-4 M
[6] = Oil/methanol (sunflower oil), n = 3
[7] = 3T3-L1 cells stained with 0.2 µg/ml LD540, suspended in PBS

Row | SMILES | log P ([1]; Octanol/water, n = 7) | log P [1, 6] | Δlog P ([1]; Octanol/water) | Δlog P ([1]; Oil/methanol) | Λ max exc [2, 7] | λ max em [2, 7] | Λ max exc ([2]; Ethanol, 3 x 10^-7 M) [nm] | λ max em ([2]; Ethanol, 3 x 10^-7 M) [nm] | Λ max exc ([2]; Hexane, 3 x 10^-7 M) [nm] | λ max em ([2]; Hexane, 3 x 10^-7 M) [nm] | Λ max exc ([2]; Sunflower oil, 3 x 10^-7 M) [nm] | λ max em ([2]; Sunflower oil, 3 x 10^-7 M) [nm] | Λ max exc ([2]; Water, 3 x 10^-7 M) [nm] | λ max em ([2]; Water, 3 x 10^-7 M) [nm] | bleaching, times slower than Nile Red [3] | emission maximum [4] [nm] | excitation maximum [4] [nm] | emission maximum ([5]; 1 mm cuvette) [nm] | emission maximum ([5]; 4 mm cuvette) [nm]
1 | CC1=CC(C)=[N+]2C1=C(C)c1c(C)cc(C)n1[B-]2(F)F [Bodipy 493/503, reference compound] | 3.50 | 0.31 | – | – | – | – | – | – | – | – | – | – | – | – | – | – | – | – | –
2 | CC1=C2C=C3CCCCC3=[N+]2[B-](F)(F)n2c1cc1c2CCCC1 [LD540] | 4.38 | 0.75 | 0.88 | 0.44 | 540 nm and 540.2 nm | 545 nm and 545.0 nm | 536.0 | 542.5 | 539.7 | 542.2 | 540.2 | 545.2 | 534.8 | 542.4 | 3 | 560 | 535 | 550 | 557
